Test [1] concerns the target T1, S1PR2 (Homo sapiens, UniProt O95136).
T1 construct: expressed in transfected cells
In words: S1PR2 binding assay (competition with radioactively labeled S1P, SpA). The conditions noted are these: membranes from stable cell line over expressing S1PR2, SpA beads; read-out: S1P2 EC50 (nM), S1PR2 binding EC50. The procedure, abridged:
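Competition with [3H]S1P for membranes from a stable S1PR2-overexpressing cell line, 20 μg/well, captured on PVT-WGA SPA beads, in 20 mM Tris pH 7.5, 10 mM MgCl2, 100 mM NaCl, 0.4% fatty-acid-free BSA, 1 mM Na3VO4. 2 h at room temperature, then centrifugation and scintillation counting.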

For test [2], the target named is T2, human GPCR sphingosine 1-phosphate receptor 5 (Homo sapiens, UniProt Q9H228).
T2 construct: host or cells: CHO
T2 sequence (Q9H228 whole entry): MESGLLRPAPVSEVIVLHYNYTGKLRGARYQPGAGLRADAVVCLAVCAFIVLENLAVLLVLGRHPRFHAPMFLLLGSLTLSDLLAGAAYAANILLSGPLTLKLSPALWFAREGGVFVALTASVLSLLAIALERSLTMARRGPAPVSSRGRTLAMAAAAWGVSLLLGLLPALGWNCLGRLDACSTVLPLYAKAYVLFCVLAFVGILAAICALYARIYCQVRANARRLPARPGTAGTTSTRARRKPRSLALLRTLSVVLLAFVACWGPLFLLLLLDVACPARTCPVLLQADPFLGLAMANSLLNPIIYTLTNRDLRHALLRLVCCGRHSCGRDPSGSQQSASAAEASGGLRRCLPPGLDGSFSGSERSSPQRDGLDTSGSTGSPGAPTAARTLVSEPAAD
As to the kind of experiment: S1PR5 selectivity Ca2+ flux assay (antagonist readout). Type of test: cell-based. The conditions noted are these: CHO cells overexpressing human S1PR5 and Gq, agonist at EC80 (20 nM), read-out: S1P5 EC50 (nM), S1P5 antagonist EC50. From the text:
To evaluate the selectivity of the compounds for S1PR2 over S1PR1 and S1PR5, asimilar assay set upas described above for theS1PR2 calcium flux assays waspeformed: CHO cells stably overexpressing human GPCR sphingosine 1-phosphate receptor 1 and Gq protein (Euroscreen, FAST-0197A) or overexpressing human GPCR sphingosine 1-phosphate receptorS5 and Gq protein were used (Perkin Elmer, ES-593-A). In case of the S1PR5 assay triggering was done with an SPR5 specific agonist instead of with S1P (Hobson et al., 2015).
(§1) 50 μL of Chinese hamster ovary (CHO) cells stably overexpressing human S1PR1 or S1PR5 are seeded in 384 well sterile microplates (7,500 cells/well or 10,000 cells/well respectively) and are incubated overnight at 37° C. under 5% CO2. Cells are subsequently washed twice with 25 μL/well of starvation medium (F-12 Ham's medium containing 0.1% fatty acid free bovine serum albumin (FAF BSA)). After one h starvation at 37° C., 5% CO2, cells are loaded with 25 μL of Fluo 8 dye diluted in Hank's balanced salt solution (HBSS) with 20 mM Hepes complemented with 5 mM of probenecid following the recommendations of the manufacturer (one h at 37° C., 5% CO2). Dilution series of compounds are prepared in HBSS buffer with 20 mM Hepes and 0.1% BSA (FAF). 10 μL of diluted compound is added to the cells using the FDSS/pCELL and intracellular calcium changes are measured immediately by recording fluorescence during 3 min (agonist readout). The ratio of maximal signal over background before compound injection is used to determine compound response.
After an incubation of 15 min at 37° C., following the agonist readout, the plates are transferred to the FDSS/pCELL reader. Cells are stimulated with 10 μL of EC80 concentration of S1P (6 nM for S1P1 and 20 nM for S1P5) and intracellular calcium changes are measured immediately by recording fluorescence during three min (antagonist readout). The ratio of maximal signal over background before S1P injection was used to determine the inhibitory effect ofthe compound.
(§2) Raw data obtained in each experiment (ratio of maximal signal over background for calcium mobilization assays) were normalized in percentage of activation (agonist mode) or inhibition (antagonist mode) using positive and negative experiment controls. Each individual plate quality was assessed by evaluation of Z′ factor calculated with raw data using the following equation
(§3) Y=bottom+(top−bottom)/(1+(10^(Log IC50−X)*Hillslope)) where X is the logarithm of the concentration of the compound
In general terms: A change in cytosolic calcium serves as a functional read-out for many receptors and channels.

The subject of test [3] is HFL-1 cells. As to the kind of experiment: IL8 assay in the presence of Human Serum Albumin. The conditions noted are these: HFL1, read-out: HSA IL8 EC50.
Test [4] addresses T3, human GPCR sphingosine 1-phosphate receptor 2 (Homo sapiens, UniProt O95136).
T3 construct: host or cells: CHO
In words: S1PR2 antagonist Ca2+ flux assay. Type of test: cell-based. The conditions noted are these: antagonist mode, CHO-S1PR2 cells, S1P at EC80, Ca2+ fluorescence; read-out: S1P2 EC50 (nM), S1P2 antagonist EC50. The method, boiled down: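 CHO cells stably expressing human S1PR2, serum-starved 1 h, Fluo8-loaded; compound-evoked Ca2+ fluorescence read 3 min (agonist mode), then after 15 min S1P at EC80 added and read 3 min (antagonist mode). Max/baseline fluorescence ratios normalised to vehicle and S1P EC100 or EC50 controls; EC50 derived.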

Test [5] addresses T4, human GPCR sphingosine 1-phosphate receptor 1 (Homo sapiens, UniProt P21453).
T4 construct: host or cells: CHO
In words: S1PR1 selectivity Ca2+ flux assay (antagonist readout). The format is cell-based. The following applies: for EC50: antagonist readout, CHO cells overexpressing human S1PR1 and Gq, S1P at EC80 (6 nM), read-out: S1P1 EC50 (nM), S1P1 antagonist EC50. As for the experimental part:
as §1
After an incubation of 15 min at 37° C., following the agonist readout, the plates are transferred to the FDSS/pCELL reader. […] The ratio of maximal signal over background before S1P injection was used to determine the inhibitory effect ofthe compound.
as §2, §3

For test [6], the system named is HFL-1 cells. As to the kind of experiment: IL-8 production assay (S1P induced IL-8). The format is cell-based. The conditions noted are these: Homo sapiens, HFL1; S1P (1 μM) induced IL-8 in HFL-1 cells, starvation medium without HSA; read-out: IL8 EC50. The method, boiled down:
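HFL-1 human fetal lung fibroblasts were starved in F12K/1% FBS, then given compound for 1 h (10-point, 1/3 dilution, 30 μM top, 0.3% DMSO final). S1P was added at 1 μM final for 16–24 h at 37 °C, and secreted IL-8 in supernatant quantified by ELISA.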

pEC50: −log10 of the molar value. Where two headings read alike, the source gives them in different places. A value given as a limit tells only on which side of the number the result lay.

By EC50 is commonly meant the midpoint of the concentration-response curve. What is called pEC50 is the negative decadic logarithm of the EC50, by convention in mol/L.

T4 sequence (P21453 whole entry): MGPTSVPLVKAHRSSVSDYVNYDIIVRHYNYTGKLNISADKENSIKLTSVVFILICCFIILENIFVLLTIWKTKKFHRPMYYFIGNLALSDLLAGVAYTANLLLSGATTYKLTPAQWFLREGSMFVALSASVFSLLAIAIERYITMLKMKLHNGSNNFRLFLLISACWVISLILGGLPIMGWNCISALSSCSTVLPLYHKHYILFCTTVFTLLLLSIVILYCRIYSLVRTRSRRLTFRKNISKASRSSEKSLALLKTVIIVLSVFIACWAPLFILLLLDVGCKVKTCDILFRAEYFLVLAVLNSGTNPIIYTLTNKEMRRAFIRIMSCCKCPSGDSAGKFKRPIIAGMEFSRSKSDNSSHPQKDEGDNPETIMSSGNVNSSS
T1 sequence (O95136 whole entry): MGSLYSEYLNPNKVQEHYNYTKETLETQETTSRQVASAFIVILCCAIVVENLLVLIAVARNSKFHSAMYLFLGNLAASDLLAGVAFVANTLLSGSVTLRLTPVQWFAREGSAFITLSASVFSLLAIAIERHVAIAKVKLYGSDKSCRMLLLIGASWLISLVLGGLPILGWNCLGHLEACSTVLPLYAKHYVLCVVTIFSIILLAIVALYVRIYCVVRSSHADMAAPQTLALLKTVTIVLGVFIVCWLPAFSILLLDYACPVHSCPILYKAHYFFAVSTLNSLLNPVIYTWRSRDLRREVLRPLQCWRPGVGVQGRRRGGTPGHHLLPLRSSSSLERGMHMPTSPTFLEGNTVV
T3 sequence (O95136 whole entry): as above

On to `CC(C(=O)O)n1nc(Cn2cc3cc(OCC(F)F)c(Cl)cc3n2)c2ccccc2c1=O` (centres unmarked) [Compound 76], for which the results for the EC50 in test [1], in test [2] and in test [4] were 317 nM, 19800 nM and 161 nM, respectively. In addition, the figures for the pEC50 in test [3] and in test [5] were 5.46 and no more than 4.70, respectively.

As for `CCOc1cc2nc(Cc3nn(CC(=O)O)c(=O)c4c(C)cccc34)[nH]c2cc1Cl` [Compound 77, 2-[4-[(6-chloro-5-ethoxy-1H-benzimidazol-2-yl)methyl]-8-methyl-1-oxo-phthalazin-2-yl]acetic acid], the pEC50 was 8.79 in test [6] and 7.56 in test [3]. For the same compound, the EC50 in test [1] came to 241 nM; in test [2] it was 6610 nM; in test [4], 29.8 nM.

As to `O=C(O)Cn1nc(Cc2cn3cc(OCC4CC4)c(Cl)cc3n2)c2ccccc2c1=O` [Compound 82, 2-[4-[[7-chloro-6-(cyclopropylmethoxy)imidazo[1,2-a]pyridin-2-yl]methyl]-1-oxo-phthalazin-2-yl]acetic acid], the pEC50 was 8.00 in test [6] and 6.41 in test [3]. Also, the results for the EC50 in test [2] and in test [5] were 4380 nM and no less than 19800 nM, respectively.

With `CC(C(=O)O)n1nc(Cc2cn3cc(OCC4CC4)c(Cl)cc3n2)c2ccccc2c1=O` (centres unmarked) [Compound 83, 2-[4-[[7-chloro-6-(cyclopropylmethoxy)imidazo[1,2-a]pyridin-2-yl]methyl]-1-oxo-phthalazin-2-yl]propanoic acid], the EC50 in test [1] worked out at 53.2 nM; in test [2], 19800 nM; in test [4], 12.7 nM. In addition, the pEC50 in test [3] is 6.90; in test [5] it was no more than 4.70.

For the compound `CC(C(=O)O)n1nc(Cc2cn3cc(OCC4CC4)c(Cl)cc3n2)c2cc(F)ccc2c1=O` (centres unmarked) [Compound 86, 2-[4-[[7-chloro-6-(cyclopropylmethoxy)imidazo[1,2-a]pyridin-2-yl]methyl]-6-fluoro-1-oxo-phthalazin-2-yl]propanoic acid], the negative-log EC50 (pEC50) in test [6] is 9.04; in test [3] it was 7.01. The EC50 turned out to be 28.7 nM in test [1], 19800 nM in test [2] and 6.33 nM in test [4].

For `CC(C)(C(=O)O)c1nn(Cc2cn3cc(OCC4CC4)c(Cl)cc3n2)c2ccccc2c1=O` [Compound 88, 2-[1-[[7-chloro-6-(cyclopropylmethoxy)imidazo[1,2-a]pyridin-2-yl]methyl]-4-oxo-cinnolin-3-yl]-2-methyl-propanoic acid], the pEC50 in test [6] was 7.53; in test [3], 6.39. For the same compound, the values for the EC50 in test [2] and in test [5] were 19800 nM and no less than 19800 nM, respectively.

Regarding `CC(C(=O)O)c1nn(Cc2cn3cc(OCC4CC4)c(C(F)(F)F)cc3n2)c2ccccc2c1=O` (centres unmarked) [Compound 100, 2-[1-[[6-(cyclopropylmethoxy)-7-(trifluoromethyl)imidazo[1,2-a]pyridin-2-yl]methyl]-4-oxo-cinnolin-3-yl]propanoic acid], the pEC50 in test [6] was 8.30; in test [3], 7.20. Besides, the EC50 in test [1] was 51.1 nM; in test [2], 19800 nM; in test [4] it was 3.45 nM.

As to `Cc1cccc2c1c(=O)c(CC(=O)O)nn2Cc1cn2cc(OCC3CC3)c(Cl)cc2n1` [Compound 102, 2-[1-[[7-chloro-6-(cyclopropylmethoxy)imidazo[1,2-a]pyridin-2-yl]methyl]-5-methyl-4-oxo-cinnolin-3-yl]acetic acid], the 50% effective concentration (EC50) in test [1] was 30 nM; in test [2] it was 19800 nM; in test [4], 3.02 nM; in test [5], no less than 19800 nM. Further, the pEC50 in test [3] was 7.74.

For `N#Cc1cc2nc(Cn3nc(C(=O)O)c(=O)c4ccccc43)[nH]c2cc1OCC1CC1` [Compound 110, 1-[[5-cyano-6-(cyclopropylmethoxy)-1H-benzimidazol-2-yl]methyl]-4-oxo-cinnoline-3-carboxylic acid], the pEC50 was 8.63 in test [6] and 7.82 in test [3]. For the same compound, the EC50 was determined as 11.2 nM in test [1], 2240 nM in test [2] and 2.17 nM in test [4].

`O=C(O)Cn1nc(Cn2cc3cc(OCC4CC4)c(Br)cc3n2)c2ccccc2c1=O` [Compound 111, 2-[4-[[6-bromo-5-(cyclopropylmethoxy)indazol-2-yl]methyl]-1-oxo-phthalazin-2-yl]acetic acid]: the pEC50 was 7.37 in test [6] and 5.97 in test [3]. Moreover, the results for the EC50 in test [1], in test [2] and in test [4] were 49 nM, 10000 nM and 15.2 nM, respectively.

On to `O=C(Cn1nc(Cc2nc3cc(Cl)c(OCC4CC4)cc3[nH]2)c2ccccc2c1=O)NC1CCCC1` [Compound 150, 2-[4-[[5-chloro-6-(cyclopropylmethoxy)-1H-benzimidazol-2-yl]methyl]-1-oxo-phthalazin-2-yl]-N-cyclopentyl-acetamide], for which the pEC50 in test [6] was 8.21; in test [3] it was 7.38. Further, the EC50 in test [1] is 15.6 nM; in test [2] it was 19800 nM; in test [4], 13.7 nM.

Regarding `O=C(O)Cn1nc(Cc2nc3nc(OCC4CC4)c(Cl)cc3[nH]2)c2ccccc2c1=O` [Compound 257, 2-[4-[[6-chloro-5-(cyclopropylmethoxy)-1H-imidazo[4,5-b]pyridin-2-yl]methyl]-1-oxo-phthalazin-2-yl]acetic acid], the pEC50 in test [6] was 7.27; in test [3], 6.66. The EC50 was found to be 231 nM in test [1], 19800 nM in test [2] and 24.3 nM in test [4].

On to `CC(C(=O)O)n1nc(Cn2cc3cc(OCC4CC4)c(Cl)cc3n2)c2ccccc2c1=O` (centres unmarked) [compound 3, 2-[4-[[6-chloro-5-(cyclopropyl-methoxy)indazol-2-yl]methyl]-1-oxo-phthalazin-2-yl]propanoic acid], for which the negative logarithm of the EC50 (pEC50) in test [6] was 8.40; in test [3] it was 6.66. Besides, in test [2], the half-maximal effective concentration (EC50) is 19800 nM.

Take `O=C(O)c1nn(Cc2nc3cc(OCC4CC4)c(Cl)cc3[nH]2)c2ccccc2c1=O` [compound 5, 1-[[6-chloro-5-(cyclopropyl-methoxy)-1H-benzimidazol-2-yl]methyl]-4-oxo-cinnoline-3-carboxylic acid]: the pEC50 in test [6] was 8.82; in test [3], 7.76. Further, the EC50 in test [1] stood at 22 nM; in test [2], 1620 nM; in test [4], 3.48 nM.

Regarding `CN(C)CC(C(=O)O)c1nn(Cc2nc3cc(C#N)c(OCC4CC4)cc3[nH]2)c2ccccc2c1=O` (centres unmarked) [compound 21, (2-[1-[[5-cyano-6-(cyclopropyl-methoxy)-1H-benzimidazol-2-yl]methyl]-4-oxocinnolin-3-yl]-3-(dimethyl-amino)propanoic acid)], the results for the pEC50 in test [6] and in test [3] were 8.60 and 7.28, respectively. For the same compound, the EC50 in test [1] is 30.4 nM; in test [2] it was 19800 nM; in test [4], 5.4 nM.

These data come from US20210315893A1 (Galapagos NV, priority 2017, published 2021).
